Measurements taken from US12448369B2 (Edgewise Therapeutics, Inc., priority 2023, dated 2025).

What follows are compounds tested on Rabbit Psoas myofibrils (skeletal myosin ATPase) (assay: Myofibril ATPase assay, rabbit psoas (skeletal) myofibrils). Settings: Y75 value (no ‡ mark); rabbit psoas myofibrils.
Assay type: biochemical
How it was run: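 Rabbit psoas skeletal myofibrils in PIPES/CaCl2/EGTA pCa buffer, pH 7.0. ATPase rate followed by PK-LDH-coupled NADH loss at 340 nm, read every 1.5–2 min for 75 min. Slopes normalized to vehicle (100%) and fitted to a 4-parameter logistic; values are Y75 (25% inhibition) or Y125 (25% activation) concentrations.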

| Structure (SMILES) | Skeletal EC25 |
| --- | --- |
| C[C@@H](NC(=O)Cc1cc2cc(F)c(F)cc2[nH]c1=O)c1cnc(C#N)nc1 [compound 1074] | 100000 nM |
| Cc1c(C(F)(F)C(=O)N[C@H](C)c2ccc(C#N)nn2)c(=O)[nH]c2ccc(F)cc12 (single isomer, unassigned) [compound 2555] | 800 nM |
| N#Cc1cnc2c(c1)OC[C@H]2NC(=O)Cc1cc2c(F)c(F)ccc2[nH]c1=O (single isomer, unassigned) [compound 13] | 50 nM |
| Cc1c(C2(C(=O)N[C@H](C)c3ncc(C#N)cn3)CC2)c(=O)[nH]c2ccc(F)c(C#N)c12 (single isomer, unassigned) [compound 2531] | 2080 nM |
| C[C@@H](NC(=O)C1(c2cc3c(F)c(F)ccc3[nH]c2=O)CC1)c1nccc(C#N)n1 (single isomer, unassigned) [compound 2505] | 100000 nM |
| Cc1c(C2(C(=O)N[C@@H](C)c3nccc(C#N)n3)CC2)c(=O)[nH]c2ccc(F)cc12 (single isomer, unassigned) [compound 4842] | 37460 nM |
| C[C@H](NC(=O)Cc1c(C2CC2)c2cc(F)ccc2[nH]c1=O)c1ccc(F)cc1F [compound 114] | 60 nM |
| Cc1c(CC(=O)N[C@H](C)c2ncc(C#N)cc2F)c(=O)[nH]c2ccc(F)c(C(F)(F)F)c12 [compound 21] | 40 nM |
| C[C@@H](NC(=O)Cc1cc2c(F)c(F)ccc2[nH]c1=O)c1cnc(C#N)cn1 (single isomer, unassigned) [compound 11] | 70 nM |
| Cc1c(CC(=O)N[C@H](C)c2ccc(C#N)nn2)c(=O)[nH]c2ccc(F)c(C3CC3)c12 (single isomer, unassigned) [compound 2057] | 270 nM |
| Cc1c(C2(C(=O)N[C@H](C)c3cccc(C#N)n3)CC2)c(=O)[nH]c2ccc(F)cc12 (single isomer, unassigned) [compound 2579] | 100000 nM |
| Cc1c(CC(=O)N[C@@H](C)c2ccc(C#N)cc2F)c(=O)[nH]c2ccc(F)c(C3CC3)c12 [compound 70] | 30 nM |
| Cc1c(CC(=O)N[C@H](C)c2ncc(F)cc2F)c(=O)[nH]c2ccc(F)c(C(F)(F)F)c12 [compound 9] | 650 nM |
| Cc1c(CC(=O)N[C@H](C)c2ccc(C#N)cn2)c(=O)[nH]c2ccc(F)cc12 [compound 1127] | 240 nM |
| Cc1nc(C#N)ncc1[C@H](C)NC(=O)Cc1cc2cc(F)c(F)cc2[nH]c1=O [compound 1097] | 150 nM |
| Cc1c(F)ccc2[nH]c(=O)c(CC(=O)N[C@H](C)c3ncc(C#N)cc3F)c(C#N)c12 [compound 1149] | 470 nM |
| C[C@@H](NC(=O)C(F)(F)c1cc2cc(F)ccc2[nH]c1=O)c1cccc(C#N)n1 (single isomer, unassigned) [compound 2581] | 100000 nM |

Same assay, conditions: rabbit psoas myofibrils; Y75 value

| Structure (SMILES) | Skeletal EC25 |
| --- | --- |
| C[C@H](NC(=O)Cc1cc2c(C(F)(F)F)nccc2[nH]c1=O)c1ccc(F)cc1F [compound 435] | 380 nM |

The compounds below were run on Porcine atria myofibrils (atrial myosin ATPase) (assay: Myofibril ATPase assay, porcine atria myofibrils). Settings: Y75 value (no ‡ mark); porcine atria myofibrils.
Assay type: biochemical
How it was run: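 Coupled PK-LDH reaction links ADP from myosin ATPase to NADH loss, read at 340 nm every 1.5-2 min for 75 min. Slopes (mAU/min) normalized to vehicle-only wells (100%) and fit to a 4-parameter logistic; Y75 is the concentration cutting activity by 25%, Y125 is reported for activators.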

| Structure (SMILES) | Atrial EC25 |
| --- | --- |
| C[C@@H](NC(=O)Cc1cc2cc(F)c(F)cc2[nH]c1=O)c1cnc(C#N)nc1 [compound 1074] | 100000 nM |
| Cc1c(C(F)(F)C(=O)N[C@H](C)c2ccc(C#N)nn2)c(=O)[nH]c2ccc(F)cc12 (single isomer, unassigned) [compound 2555] | 3650 nM |
| N#Cc1cnc2c(c1)OC[C@H]2NC(=O)Cc1cc2c(F)c(F)ccc2[nH]c1=O (single isomer, unassigned) [compound 13] | 320 nM |
| Cc1c(C2(C(=O)N[C@H](C)c3ncc(C#N)cn3)CC2)c(=O)[nH]c2ccc(F)c(C#N)c12 (single isomer, unassigned) [compound 2531] | 1290 nM |
| C[C@@H](NC(=O)C1(c2cc3c(F)c(F)ccc3[nH]c2=O)CC1)c1nccc(C#N)n1 (single isomer, unassigned) [compound 2505] | 100000 nM |
| Cc1c(C2(C(=O)N[C@@H](C)c3nccc(C#N)n3)CC2)c(=O)[nH]c2ccc(F)cc12 (single isomer, unassigned) [compound 4842] | 100000 nM |
| C[C@H](NC(=O)Cc1c(C2CC2)c2cc(F)ccc2[nH]c1=O)c1ccc(F)cc1F [compound 114] | 3860 nM |
| Cc1c(CC(=O)N[C@H](C)c2ncc(C#N)cc2F)c(=O)[nH]c2ccc(F)c(C(F)(F)F)c12 [compound 21] | 30 nM |
| C[C@@H](NC(=O)Cc1cc2c(F)c(F)ccc2[nH]c1=O)c1cnc(C#N)cn1 (single isomer, unassigned) [compound 11] | 50 nM |
| Cc1c(CC(=O)N[C@H](C)c2ccc(C#N)nn2)c(=O)[nH]c2ccc(F)c(C3CC3)c12 (single isomer, unassigned) [compound 2057] | 650 nM |
| Cc1c(C2(C(=O)N[C@H](C)c3cccc(C#N)n3)CC2)c(=O)[nH]c2ccc(F)cc12 (single isomer, unassigned) [compound 2579] | 100000 nM |
| Cc1c(CC(=O)N[C@@H](C)c2ccc(C#N)cc2F)c(=O)[nH]c2ccc(F)c(C3CC3)c12 [compound 70] | 100000 nM |
| Cc1c(CC(=O)N[C@H](C)c2ncc(F)cc2F)c(=O)[nH]c2ccc(F)c(C(F)(F)F)c12 [compound 9] | 3290 nM |
| Cc1c(CC(=O)N[C@H](C)c2ccc(C#N)cn2)c(=O)[nH]c2ccc(F)cc12 [compound 1127] | 720 nM |
| Cc1nc(C#N)ncc1[C@H](C)NC(=O)Cc1cc2cc(F)c(F)cc2[nH]c1=O [compound 1097] | 1110 nM |
| Cc1c(F)ccc2[nH]c(=O)c(CC(=O)N[C@H](C)c3ncc(C#N)cc3F)c(C#N)c12 [compound 1149] | 1900 nM |
| C[C@@H](NC(=O)C(F)(F)c1cc2cc(F)ccc2[nH]c1=O)c1cccc(C#N)n1 (single isomer, unassigned) [compound 2581] | 100000 nM |

Same assay, conditions: porcine atria myofibrils; Y75 value (75% activity relative to no compound)

| Structure (SMILES) | Atrial EC25 |
| --- | --- |
| C[C@H](NC(=O)Cc1cc2c(C(F)(F)F)nccc2[nH]c1=O)c1ccc(F)cc1F [compound 435] | 32520 nM |

Each compound was assayed against T1, Porcine ventricle myofibrils (ventricular myosin ATPase) (Sus scrofa, UniProt P79293) (assay: Myofibril ATPase assay, porcine ventricle myofibrils). Settings: Y75 value (no ‡ mark); porcine ventricle myofibrils.
T1 construct: Myofibrils from porcine cardiac muscle was isolated from the left ventricle of Yucatan minipigs; tissue Exemplar Genetics; host or cells: left ventricle of Yucatan minipigs, myofibrils prepared in house
Assay type: biochemical, porcine (Yucatan minipigs)
How it was run: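 ATPase activity of porcine left-ventricle myofibrils (Yucatan minipig) was followed through PK-LDH coupling as NADH loss at 340 nm, read every 1.5-2 min for 75 min. Slopes were normalised to vehicle wells and fitted to a 4-parameter logistic model. Values are Y75, the concentration giving a 25% drop in activity, or Y125 for activators.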

T1 sequence (P79293 whole entry): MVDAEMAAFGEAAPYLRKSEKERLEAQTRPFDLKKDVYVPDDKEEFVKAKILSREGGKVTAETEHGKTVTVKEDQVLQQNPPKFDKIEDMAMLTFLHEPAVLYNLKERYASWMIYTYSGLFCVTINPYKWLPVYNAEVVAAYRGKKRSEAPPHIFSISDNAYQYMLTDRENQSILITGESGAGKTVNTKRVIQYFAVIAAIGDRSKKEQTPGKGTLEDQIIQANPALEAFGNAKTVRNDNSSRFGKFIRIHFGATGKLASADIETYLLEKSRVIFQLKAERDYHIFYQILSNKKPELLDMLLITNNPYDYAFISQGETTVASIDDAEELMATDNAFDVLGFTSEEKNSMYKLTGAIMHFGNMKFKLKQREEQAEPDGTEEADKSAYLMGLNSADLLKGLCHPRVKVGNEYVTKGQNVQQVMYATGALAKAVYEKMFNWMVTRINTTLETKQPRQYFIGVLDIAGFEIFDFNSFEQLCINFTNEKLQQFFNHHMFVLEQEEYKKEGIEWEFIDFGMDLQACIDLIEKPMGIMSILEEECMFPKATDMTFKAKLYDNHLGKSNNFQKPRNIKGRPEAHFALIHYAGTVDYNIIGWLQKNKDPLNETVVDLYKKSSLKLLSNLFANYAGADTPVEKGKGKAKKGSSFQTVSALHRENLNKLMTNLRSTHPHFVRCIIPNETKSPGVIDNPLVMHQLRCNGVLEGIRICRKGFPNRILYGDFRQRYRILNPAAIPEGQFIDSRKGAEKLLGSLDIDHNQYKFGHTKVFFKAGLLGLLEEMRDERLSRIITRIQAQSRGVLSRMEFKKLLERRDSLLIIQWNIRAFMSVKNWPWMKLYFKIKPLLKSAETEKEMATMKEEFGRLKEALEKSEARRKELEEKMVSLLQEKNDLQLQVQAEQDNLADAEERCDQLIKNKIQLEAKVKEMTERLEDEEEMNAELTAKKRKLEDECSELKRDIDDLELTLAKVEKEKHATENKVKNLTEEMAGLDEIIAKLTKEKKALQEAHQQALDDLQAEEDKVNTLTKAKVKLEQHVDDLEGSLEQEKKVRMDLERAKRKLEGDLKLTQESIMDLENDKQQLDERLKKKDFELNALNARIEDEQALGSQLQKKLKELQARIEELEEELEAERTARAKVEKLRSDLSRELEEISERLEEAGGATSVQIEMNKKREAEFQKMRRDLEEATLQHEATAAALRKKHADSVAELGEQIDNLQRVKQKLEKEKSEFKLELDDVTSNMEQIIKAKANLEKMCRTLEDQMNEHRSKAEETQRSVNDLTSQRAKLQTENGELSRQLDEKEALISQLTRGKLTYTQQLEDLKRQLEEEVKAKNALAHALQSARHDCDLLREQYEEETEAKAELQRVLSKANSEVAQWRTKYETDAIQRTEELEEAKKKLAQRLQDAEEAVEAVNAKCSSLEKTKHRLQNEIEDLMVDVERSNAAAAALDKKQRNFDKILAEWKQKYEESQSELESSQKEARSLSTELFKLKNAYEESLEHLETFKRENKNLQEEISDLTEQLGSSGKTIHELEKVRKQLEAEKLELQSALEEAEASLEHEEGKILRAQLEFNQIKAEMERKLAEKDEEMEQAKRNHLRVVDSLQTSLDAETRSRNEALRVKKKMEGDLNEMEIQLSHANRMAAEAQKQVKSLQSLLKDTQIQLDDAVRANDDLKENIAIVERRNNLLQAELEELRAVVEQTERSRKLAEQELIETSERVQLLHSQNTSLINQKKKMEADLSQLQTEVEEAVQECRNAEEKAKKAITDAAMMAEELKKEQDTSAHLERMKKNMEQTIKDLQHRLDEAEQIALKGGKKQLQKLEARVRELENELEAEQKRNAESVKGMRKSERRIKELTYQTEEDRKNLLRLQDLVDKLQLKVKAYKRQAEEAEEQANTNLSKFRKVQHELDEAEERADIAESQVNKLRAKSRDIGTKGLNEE

| Structure (SMILES) | Ventricular EC25 |
| --- | --- |
| C[C@@H](NC(=O)Cc1cc2cc(F)c(F)cc2[nH]c1=O)c1cnc(C#N)nc1 [compound 1074] | 100000 nM |
| Cc1c(C(F)(F)C(=O)N[C@H](C)c2ccc(C#N)nn2)c(=O)[nH]c2ccc(F)cc12 (single isomer, unassigned) [compound 2555] | 6700 nM |
| N#Cc1cnc2c(c1)OC[C@H]2NC(=O)Cc1cc2c(F)c(F)ccc2[nH]c1=O (single isomer, unassigned) [compound 13] | 90 nM |
| Cc1c(C2(C(=O)N[C@H](C)c3ncc(C#N)cn3)CC2)c(=O)[nH]c2ccc(F)c(C#N)c12 (single isomer, unassigned) [compound 2531] | 15110 nM |
| C[C@@H](NC(=O)C1(c2cc3c(F)c(F)ccc3[nH]c2=O)CC1)c1nccc(C#N)n1 (single isomer, unassigned) [compound 2505] | 100000 nM |
| Cc1c(C2(C(=O)N[C@@H](C)c3nccc(C#N)n3)CC2)c(=O)[nH]c2ccc(F)cc12 (single isomer, unassigned) [compound 4842] | 100000 nM |
| C[C@H](NC(=O)Cc1c(C2CC2)c2cc(F)ccc2[nH]c1=O)c1ccc(F)cc1F [compound 114] | 4540 nM |
| Cc1c(CC(=O)N[C@H](C)c2ncc(C#N)cc2F)c(=O)[nH]c2ccc(F)c(C(F)(F)F)c12 [compound 21] | 130 nM |
| C[C@@H](NC(=O)Cc1cc2c(F)c(F)ccc2[nH]c1=O)c1cnc(C#N)cn1 (single isomer, unassigned) [compound 11] | 150 nM |
| Cc1c(CC(=O)N[C@H](C)c2ccc(C#N)nn2)c(=O)[nH]c2ccc(F)c(C3CC3)c12 (single isomer, unassigned) [compound 2057] | 940 nM |
| Cc1c(C2(C(=O)N[C@H](C)c3cccc(C#N)n3)CC2)c(=O)[nH]c2ccc(F)cc12 (single isomer, unassigned) [compound 2579] | 100000 nM |
| Cc1c(CC(=O)N[C@@H](C)c2ccc(C#N)cc2F)c(=O)[nH]c2ccc(F)c(C3CC3)c12 [compound 70] | 100000 nM |
| Cc1c(CC(=O)N[C@H](C)c2ncc(F)cc2F)c(=O)[nH]c2ccc(F)c(C(F)(F)F)c12 [compound 9] | 920 nM |
| Cc1c(CC(=O)N[C@H](C)c2ccc(C#N)cn2)c(=O)[nH]c2ccc(F)cc12 [compound 1127] | 1570 nM |
| Cc1nc(C#N)ncc1[C@H](C)NC(=O)Cc1cc2cc(F)c(F)cc2[nH]c1=O [compound 1097] | 1560 nM |
| Cc1c(F)ccc2[nH]c(=O)c(CC(=O)N[C@H](C)c3ncc(C#N)cc3F)c(C#N)c12 [compound 1149] | 150 nM |
| C[C@@H](NC(=O)C(F)(F)c1cc2cc(F)ccc2[nH]c1=O)c1cccc(C#N)n1 (single isomer, unassigned) [compound 2581] | 100000 nM |

Same assay, conditions: porcine ventricle myofibrils; Y75 value

| Structure (SMILES) | Ventricular EC25 |
| --- | --- |
| C[C@H](NC(=O)Cc1cc2c(C(F)(F)F)nccc2[nH]c1=O)c1ccc(F)cc1F [compound 435] | 19100 nM |
